From patent US9051581B2, “Defense peptides against fungal infection and method of their use” (The Curators of the University of Missouri, priority 2010, dated 2015)

Columns and labels:
[1] = test system: P. pachyrhizi urediniospores; test: In vitro inhibition of urediniospore germ tube growth by phage-display peptide clones (initial assessment, repeated trials); type: cell-based, Phakopsora pachyrhizi; conditions: inhibition = 50% or greater germ tube inhibition after 8 h incubation; 10^13 virions ml^−1; field-collected urediniospores
Experimental: Representative, affinity-selected, phage-display peptide clones were initially assessed in vitro for the ability to inhibit urediniospore germ tube growth. Two-hundred fifty phage clones, randomly chosen from the final selection round, were amplified by E. coli infection, twice purified using PEG-precipitation, and re-suspended in sterile deionized water. Phage concentrations were calculated from UV absorbance measurements as virions μl^−1 (2).
A 25-μl water droplet containing ≈300 non-germinated urediniospores collected from soybean leaves in Florida was incubated on a microscope slide in the presence of a phage clone at a concentration equivalent to 10^13 virions ml^−1. […] Urediniospores were visualized using an Olympus Stereo Zoom Microscope (model SZH; Olympus Optical Co., LTD, Tokyo, Japan) at 50× magnification under transmitted light. Images of germinating urediniospores were captured in random microscope fields with a Spot Insight Color digital camera (Diagnostic Instruments, Inc., Sterling Heights, Mich.). Images were manipulated for viewing using Spot imaging software (version 4.0.3) set up with auto exposure to provide contrast of developing germ tubes against a green background. Comparative germination was assessed in three separate experiments. Phage clones that induced greater than 50% reduction in germ tube length (by visual estimation) compared to growth in water were evaluated in seven additional experiments.

[2] = test system: Phakopsora pachyrhizi urediniospores; test: Effect of phage-display peptide concentration on urediniospore germ tube elongation in vitro; type: cell-based; conditions: for effective peptide concentration equivalent at maximal inhibition, phage-display format: five peptide copies per M13 virion at ≈10^13 virions ml^−1
Experimental: The bioactivities of two inhibitory phage-display peptide clones, M13-Sp2 and M13-Sp39, identified in initial assessments were estimated over a range of concentrations including 0.5, 1.0, and 1.5×10^13 virions ml^−1. As before, a 25-μl water droplet containing ≈300 urediniospores was incubated at 22° C. (4) on a microscope slide in the presence of M13-Sp2 or M13-Sp39 at each concentration. Urediniospores in these and all subsequent experiments were derived from the Missouri population, MOS-2008. Control treatments included urediniospores incubated either in water or an equivalent concentration of phage from an unselected library. Spore germination and germ tube growth were visualized over time and quantified by image capture and analyses using MetaMorph software (Version 6.2r6, Universal Imaging, Downington, Pa.). Germ tube length was measured using a line scan function based on conversion of image pixels to length. Germ tube length was averaged from 50 randomly selected germinated urediniospores in each image and across four experimental replicates per treatment.

[3] = test system: Phakopsora pachyrhizi urediniospores; test: In vitro inhibition of urediniospore germ tube growth by ZmCKX1-peptides; type: cell-based; conditions: ZmCKX1 scaffold-display format
Experimental: Purified ZmCKX1-Sp2 and ZmCKX1-Sp39 peptides were assessed in vitro for the ability to inhibit urediniospore germination. A 25-μl water droplet containing 300 freshly harvested MOS-2008 urediniospores was incubated on a glass slide in the presence of either ZmCKX1-Sp2 or ZmCKX1-Sp39. Control treatments included urediniospores incubated in water or in the presence of ZmCKX1 alone. Germ tube growth was visualized over time and quantified by image capture and analyses as described previously.

## ASTIGNLMPGHS (Random peptide insert) [Sp14, 12-mer phage-display selected peptide]
[1]
  Frequency of germ tube inhibition over 10 trials: 5

## DHIRISTSYKSP (Random peptide insert) [Sp51, 12-mer phage-display selected peptide]
[1]
  Frequency of germ tube inhibition over 10 trials: 3

## DRFTSDLRAPDS (Random peptide insert) [Sp61, 12-mer phage-display selected peptide]
[1]
  Frequency of germ tube inhibition over 10 trials: 3

## FDPHEPTNTRSP (Random peptide insert) [Sp15, 12-mer phage-display selected peptide]
[1]
  Frequency of germ tube inhibition over 10 trials: 6

## LTKEPATGRAML (Random peptide insert) [Sp18, 12-mer phage-display selected peptide]
[1]
  Frequency of germ tube inhibition over 10 trials: 6

## MLESHAWPPRAI (Random peptide insert) [Sp2]
[1]
  Frequency of germ tube inhibition over 10 trials: 8
[2]
  effective peptide concentration equivalent at maximal inhibition, phage-display format: 10 nM
  concentration of maximal inhibition of germ tube elongation, phage-display format: ≈ 10^13 virions ml^−1
[3]
  concentration of maximum germ tube inhibition, displayed on ZmCKX1 scaffold: 115 µM

## STVASLGKPTKI (Random peptide insert) [Sp8, 12-mer phage-display selected peptide]
[1]
  Frequency of germ tube inhibition over 10 trials: 4

## TFDRHILDTRGS (Random peptide insert) [Sp6, 12-mer phage-display selected peptide]
[1]
  Frequency of germ tube inhibition over 10 trials: 3

## TPTRSLDSPHNM (Random peptide insert) [Sp59, 12-mer phage-display selected peptide]
[1]
  Frequency of germ tube inhibition over 10 trials: 4

## YISPLPNAATIS (Random peptide insert) [Sp5, 12-mer phage-display selected peptide]
[1]
  Frequency of germ tube inhibition over 10 trials: 3

## YNKPSFQDHSVI (Random peptide insert) [Sp39]
[1]
  Frequency of germ tube inhibition over 10 trials: 7
[2]
  effective peptide concentration equivalent at maximal inhibition, phage-display format: 10 nM
  concentration of maximal inhibition of germ tube elongation, phage-display format: ≈ 10^13 virions ml^−1
[3]
  concentration of maximum germ tube inhibition, displayed on ZmCKX1 scaffold: 115 µM
